Measured values taken from publication PMC8970883, “Simultaneous Determination of Seven Phenolic Acids, Two Flavonoids, and Tussilagone in Rat Plasma after Administration of Farfarae Flos Extract by LC–MS/MS” (Evidence-based Complementary and Alternative Medicine : eCAM, 2022).
Where two headings read alike, the source gives them in different places.

Tests used:
[1] = Pharmacokinetic study in rats after intragastric administration of Farfarae Flos extract (plasma, LC-MS/MS); assay type: in vivo; conditions: for Cmax / Tmax / half-life / MRT last / MRT inf: male; for Cmax: rat, plasma, po; for MRT last: read-out: MRT(0–24h); for MRT inf: read-out: MRT(0–∞)
Text: A high-performance liquid chromatography instrument was used to separate three types of compounds (Agilent 1200 series, USA). The HPLC instrument is composed of four parts; a G1322A degasser, G1312A Bin Pump, G1367B auto-sampler, and G1316A thermostatic column compartment. Three types of compounds and three internal standards (ISs) were separated on an Eclipse Plus C18 (4.6 × 100 mm, 1.8 μm). The mobile phase was composed of formic acid aqueous solution (A) and formic acid methanol solution (B). The concentration of formic acid in both A and B solution was 0.1% (v/v). The gradient elution was as follows. The proportion of 10% B changes to 40% from 0 min to 3mins. 40% B changes to 90% from 16 to 18 min. B is maintained at 100% from 19 to 28 min. The flow rate, sample injected volume, and column temperature was 0.35 mL·min^−1, 10 μL, and 35°C, respectively.
Quantitative analysis of all samples was performed on Sciex API 3200 with an electrospray ionization (ESI) source. Analyst 1.6.2 workstation for instrument operation, data management, and data analysis were employed to analyze and process data (AB, Sciex). Ten analyzed compounds and three ISs were optimized during multiple reactions monitoring (MRM). […] MRM parameters of CCLA were set at 353.1-191.0. […] MRM parameters of IAB were set as 515.3-353.2 and MRM parameters of IAA were set at 515.2-353.0. MRM parameters of IAC and tussilagone were set as 515.3-352.9, 391.4-217.4, respectively.
Twenty male rats (4 months old, weight 240 ± 20 g) were obtained commercially from Vital River Laboratory Animal Company (Beijing, China). Before the pharmacokinetic experiments, they were free to eat food and drink water for one week for adapting to the environment when the dark light cycle was 12 hours, while the temperature was maintained at 25 ± 5°C. The animal experiments were guided and strictly approved by Tianjin Hospital animal ethics committee. They were fasted for 12 hours and could only drink freely water before intragastric administration of Farfarae Flos extract. Ten rats in each group were employed for eliminating data variation caused by different animal individuals. All rats in groups 1 and group 2 were orally administrated one time at two dosages of Farfarae Flos extract (carboxymethyl cellulose sodium salt (0.5%) was used to suspend the extract to prepare the administration solution 3.90 g·kg^−1 and 7.80 g·kg^−1), respectively. Rats were anesthetized with ether. The heparinized 1.5 mL polythene tube was used to collect bank plasma samples before administering dose of the extract. About 250 μL plasma samples were collected at each collecting points of 5 min, 10 min, 0.25 h, 0.50 h, 0.75 h, 1 h, 2 h, 4 h, 8 h, 12 h, 24 h, and 36 h via fossa orbitalis after dosing. All plasma samples from collecting points need to be centrifuged at 4,000 rpm for ten minutes. The supernatant fluid of centrifuged plasma samples was obtained and immediately stored at −20°C in a refrigerator until they were analyzed.
The maximum concentration (Cmax) and the time to reach the maximum concentration (Tmax) of ten target compounds were directly calculated by the real concentration-time data in the plasma. The data were expressed as mean ± SD.
Ten microliters of ISs solution (contained puerarin, ferulic acid, and artemisinin) and the plasma sample (100 μL) were added into a clean tube, and then acetonitrile (400 μL) was added to precipitate protein. After centrifugation at 14000 rpm for 10 minutes, a mild nitrogen flow was used to evaporate the liquid of the supernatant to dryness. Then, the residue was dissolved in methanol (100 μL). The solution was vortexed for 3 min, mixed for 3 minutes with ultrasound, and centrifuged for 10 min. Finally, the solution (10 μL) was used to detect concentration of ten target compounds in rat plasma.

[2] = previous pharmacokinetic study on chlorogenic acid ref 15; cited from earlier work
[3] = Stability of QC samples in rat plasma (24 h, freeze-thaw, 4 weeks); assay type: in vitro ADME; conditions: six replicates; for Freeze-thaw stability, percent remaining: freeze-thaw cycles −20°C to 20°C; for Long stability Remain (%): stored at −80°C for 4 weeks; for 24 h stability Remain (%): 24 hours at 20°C
Protocol: Stock solution of 10 analytical compounds (1.00 mg·mL^−1) and three internal standards (ISs) was dissolved in methanol and placed in the refrigerator before testing. Methanol was used to prepare ferulic acid (IS1), puerarin (IS2), and artemisinin (IS3) solutions to reach a concentration of 1 μg mL^−1, respectively. A specific volume of each analyte stock solution is mixed together to prepare the standard working solution containing 10 analytes with a concentration of 10 times at LLOQ and three levels (high, medium, and low). Quality control (QC) samples for methodological validation were prepared to obtain the final concentration by adding standard working solution (10 μL) into blank plasma samples (100 μL).
Four concentration levels of ICB and ICA were 4, 12, 400, and 12000 ng mL^−1, respectively. Four concentration levels of caffeic acid were 10, 30, 1000, and 30000 ng·mL^−1, respectively.
In the stability test, 24-hour stability (The samples were placed for 24 hours at 20°C and then measured), freeze-thaw cycles (The sample was injected after the temperature changing from −20°C to 20°C), and 4 weeks stability (The sample was determined after stored at −80°C for 4 weeks) of representative QC samples were all tested. All of them were assayed with six replicates.

[4] = 3.9 g/kg, oral Farfarae Flos extract 3.9 g·kg^−1, mean ± SD
[5] = rat plasma, oral Farfarae Flos extract 3.9 g·kg^−1, mean ± SD
[6] = rat plasma, oral Farfarae Flos extract 7.8 g·kg^−1, mean ± SD
[7] = high concentration level (3000-30000 ng·mL^−1)
[8] = low concentration level (3-30 ng·mL^−1)
[9] = medium concentration level (100-1000 ng·mL^−1)

Cmax [1, 4] | Tmax [1, 5] | half-life [1, 5] | MRT last [1, 5] | MRT inf [1, 5] | Tmax [1, 6] | half-life [1, 6] | MRT last [1, 6] | MRT inf [1, 6] | AUC(0–24h) [1, 5] | AUC(0–∞) [1, 5] | AUC(0–24h) [1, 6] | AUC(0–∞) [1, 6] | Freeze-thaw stability, percent remaining [3, 7] | Long stability Remain (%) [3, 7] | Long stability Remain (%) [3, 8] | Freeze-thaw stability, percent remaining [3, 9] | SMILES | further results
538 ± 489 ng/mL | 0.64 ± 0.244 h | 2.16 ± 1.46 h | 4.4 ± 1.71 h | 5.41 ± 2.04 h | 0.38 ± 0.14 h | 1.28 ± 0.56 h | 4.63 ± 1.36 h | 5.32 ± 1.55 h | 1425 ± 1046 ng/mL ∗ h | 1467 ± 1044 ng/mL ∗ h | 3611 ± 1023 ng/mL ∗ h | 3692 ± 1052 ng/mL ∗ h | 115% | 112% | 114% | 88.7% | O=C(/C=C/c1ccc(O)c(O)c1)O[C@@H]1C[C@](O)(C(=O)O)C[C@@H](O)[C@H]1O [CLA, chlorogenic acid] | MRT [2]: 5.08 ± 0.89 h; Tmax [2]: 0.70 ± 0.19 h
0.83 ± 0.5 ng/mL | 0.44 ± 0.38 h | 0.28 ± 0.2 h | 0.87 ± 0.134 h | 3.12 ± 2.62 h | 0.4 ± 0.33 h | 0.82 ± 0.72 h | 2.42 ± 2.1 h | 6.98 ± 9.13 h | 1.06 ± 0.564 ng/mL ∗ h | 2.19 ± 1.98 ng/mL ∗ h | 35.48 ± 42.302 ng/mL ∗ h | 47.12 ± 49.445 ng/mL ∗ h | 91.8% | 109% | 101% | 115% | C=C1[C@H](OC(=O)/C=C(\C)CC)C[C@@H](C(C)C)[C@@H]2[C@@H]([C@@H](C)OC(C)=O)C(=O)C[C@@H]12 [Tussilagone, tussilagone] | Cmax ([1]; 7.8 g/kg, oral Farfarae Flos extract 7.8 g·kg^−1, mean ± SD): 18.1 ± 13 ng/mL; Terminal elimination half-life ([1]; rat plasma, compared among the three types of compounds, Farfarae Flos extract 3.90 and 7.80 g·kg^−1): shortest; 24 h stability Remain (%) [3, 7]: 95.0%; 24 h stability Remain (%) [3, 8]: 100%; Freeze-thaw stability, percent remaining [3, 8]: 83.9%; 24 h stability Remain (%) [3, 9]: 92.1%; Long stability Remain (%) [3, 9]: 107%
